The assay has as its system RpGS1. The following applies: read-out: RpGS1; 0.5-15 mM sodium glutamate; ATP, hydroxylamine, Mg2+ in solution B pH 7.4; 37 C; called purified in the discussion, methods describe protein released by ultrasonication.

Take `N[C@@H](CCC(=O)O)C(=O)O` [sodium glutamate]: the Km was found to be 580 µM.

For the origin of these results see article PMC12216525, “Characterization of glutamine synthetase involved in the fecundity of Rhopalosiphum padi” (Scientific Reports, 2025).
